Results published in patent US8367830B2, “Methods for the identification of phosphatidylinositol kinase interacting molecules and for the purification of phosphatidylinositol kinase proteins” (Cellzome AG, priority 2009, dated 2013).

Tests used:
PIK3Cd = PIK3Cd (Homo sapiens, UniProt O00329); test: Kinobeads competition binding, immobilized CZC31207, Jurkat/Ramos lysate mix; set-up: endogenous in cells; details: 10 μM free compound; mix of Jurkat and Ramos cell lysates
Procedure: (§1) To the first aliquot of cell lysate 10 μM of the free compound CZC31207 was added and allowed to bind to proteins in the lysate. Then the affinity matrix with the immobilized compound was added to capture proteins that were not interacting with the previously added free compound. Beads were separated from the lysate and bead bound proteins were eluted in SDS sample buffer and subsequently separated by SDS-Polyacrylamide gel electrophoresis (FIG. 5). Suitable gel bands were cut out and subjected to in-gel proteolytic digestion with trypsin. The second lysate aliquot was processed identically, however no free compound was added (DMSO solvent control). Peptides originating from samples 1 and 2 were labeled with iTRAQ reagents (iTRAQ 114 and iTRAQ 116) and the combined samples were analyzed with a nano-flow liquid chromatography system coupled online to a tandem mass spectrometer (LC-MS/MS) experiment followed by iTRAQ reporter ion quantification in the MS/MS spectra as described in Example 2.
(§2) Jurkat cells (ATCC number T1B-152) and Ramos cells (ATCC number CRL-1596) were either obtained from an external supplier (CIL SA, Mons, Belgium) or grown in one litre Spinner flasks (Integra Biosciences, #182101) in suspension in RPMI 1640 medium (Invitrogen, #21875-034) supplemented with 10% Fetal Bovine Serum (Invitrogen, #10270-106) at a density between 0.2×10^6 and 1.0×10^6 cells/ml. Cells were harvested by centrifugation, washed once with 1×PBS buffer (Invitrogen, #14190-094) and cell pellets were frozen in liquid nitrogen and subsequently stored at −80° C.
(§3) The identified kinases are shown in Table 5 including the percent competition values for the sample to which 10 μM free compound had been added. In total of 20 different kinases were identified and competed by different degrees.

PIK3Cb = PIK3Cb (Homo sapiens, UniProt P42338); test: as above; set-up: endogenous in cells; details: 10 μM free compound; mix of Jurkat and Ramos cell lysates
Procedure: as §1, §2, §3

FRAP = FRAP (Homo sapiens, UniProt P42345); test: as above; set-up: endogenous in cells; details: 10 μM free compound; mix of Jurkat and Ramos cell lysates
Procedure: as §1, §2, §3

DNAPK = DNAPK (Homo sapiens, UniProt P78527); test: as above; set-up: endogenous in cells; details: 10 μM free compound; mix of Jurkat and Ramos cell lysates
Procedure: as §1, §2, §3

PIP5K2C = PIP5K2C (Homo sapiens, UniProt Q8TBX8); test: as above; set-up: endogenous in cells; details: 10 μM free compound; mix of Jurkat and Ramos cell lysates
Procedure: as §1, §2, §3

NEK2 = NEK2 (Homo sapiens, UniProt P51955); test: as above; set-up: endogenous in cells; details: 10 μM free compound; mix of Jurkat and Ramos cell lysates
Procedure: as §1, §2, §3

PIK3Cg = PIK3Cg (Homo sapiens, UniProt P48736); test: as above; set-up: endogenous in cells; details: 10 μM free compound; mix of Jurkat and Ramos cell lysates
Procedure: as §1, §2, §3

BCKDK [1] = biological target: T1, BCKDK (Homo sapiens, UniProt O14874); test: as above; set-up: endogenous in cells; host or cells: mixed lysate of Jurkat and Ramos cells; details: 10 μM free compound; mix of Jurkat and Ramos cell lysates
Procedure: as §1
as §2, with “Cells were harvested by centrifugation, washed once with 1×PBS buffer (Invitrogen, #14190-094) and cell pellets were frozen in liquid nitrogen and subsequently stored at −80° C.” left out

MAP3K1 [2] = biological target: T2, MAP3K1 (Homo sapiens, UniProt Q13233); test: as above; set-up: endogenous in cells; host or cells: mixed lysate of Jurkat and Ramos cells; details: 10 μM free compound; mix of Jurkat and Ramos cell lysates
Procedure: as §1
as §2, with “Cells were harvested by centrifugation, washed once with 1×PBS buffer (Invitrogen, #14190-094) and cell pellets were frozen in liquid nitrogen and subsequently stored at −80° C.” left out

MLKL = biological target: T3, MLKL (Homo sapiens, UniProt Q8NB16); test: Kinobeads competition binding, immobilized CZC31207, HeLa/placenta lysate mix; details: 10 μM free compound; mixed HeLa and placenta cell lysates
T3 construct: endogenous in cells; host or cells: mix of HeLa cell lysate and placenta lysate
Procedure: (§4) To the first aliquot of cell lysate 10 μM of the free compound (CZC31207) was added and allowed to bind to proteins in the lysate. Then the affinity matrix with the immobilized compound (Example 1) was added to capture proteins that were not interacting with the previously added free compound. Beads were separated from the lysate and bead bound proteins were eluted in SDS sample buffer and subsequently separated by SDS-Polyacrylamide gel electrophoresis (FIG. 4). Suitable gel bands were cut out and subjected to in-gel proteolytic digestion with trypsin. The second lysate aliquot was processed identically, however no free compound was added (DMSO solvent control). Peptides originating from samples 1 and 2 were labeled with iTRAQ reagents (iTRAQ 115 and iTRAQ 117) and the combined samples were analyzed with a nano-flow liquid chromatography system coupled online to a tandem mass spectrometer (LC-MS/MS) experiment followed by iTRAQ reporter ion quantification in the MS/MS spectra (Ross et al., 2004. Mol. Cell. Proteomics 3(12):1154-1169). Further experimental protocols can be found in WO2006/134056 and a previous publication (Bantscheff et al., 2007. Nature Biotechnology 25, 1035-1044).
(§5) Cells were homogenized in a Potter S homogenizer in lysis buffer: 50 mM Tris-HCl, 0.8% NP40, 5% glycerol, 150 mM NaCl, 1.5 mM MgCl2, 25 mM NaF, 1 mM sodium vanadate, 1 mM DTT, pH 7.5. One complete EDTA-free tablet (protease inhibitor cocktail, Roche Diagnostics, 1 873 580) per 25 ml buffer was added. The material was dounced 20 times using a mechanized POTTER S, transferred to 50 ml falcon tubes, incubated for 30 minutes rotating at 4° C. and spun down for 10 minutes at 20,000×g at 4° C. (10,000 rpm in Sorvall SLA600, precooled). The supernatant was transferred to an ultracentrifuge (UZ)-polycarbonate tube (Beckmann, 355654) and spun for 1 hour at 145.000×g at 4° C. (40.000 rpm in Ti50.2, precooled). The supernatant was transferred again to a fresh 50 ml falcon tube, the protein concentration was determined by a Bradford assay (BioRad) and samples containing 50 mg of protein per aliquot were prepared. The samples were immediately used for experiments or frozen in liquid nitrogen and stored frozen at −80° C.
(§6) Sepharose-beads with the immobilized compound (100 μl beads per pull-down experiment) were equilibrated in lysis buffer and incubated with a cell lysate sample containing 50 mg of protein on an end-over-end shaker (Roto Shake Genie, Scientific Industries Inc.) for 2 hours at 4° C. Beads were collected, transferred to Mobicol-columns (MoBiTech 10055) and washed with 10 ml lysis buffer containing 0.4% NP40 detergent, followed by 5 ml lysis buffer containing 0.2% detergent. To elute bound proteins, 60 μl 2×SDS sample buffer was added to the column. The column was incubated for 30 minutes at 50° C. and the eluate was transferred to a siliconized microfuge tube by centrifugation. Proteins were then alkylated with 108 mM iodoacetamid. Proteins were then separated by SDS-Polyacrylamide electrophoresis (SDS-PAGE).
(§7) Gel-separated proteins were digested in-gel essentially following a previously described procedure (Shevchenko et al., 1996, Anal. Chem. 68:850-858). Briefly, gel-separated proteins were excised from the gel using a clean scalpel, destained twice using 100 μl 5 mM triethylammonium bicarbonate buffer (TEAB; Sigma T7408) and 40% ethanol in water and dehydrated with absolute ethanol. Proteins were subsequently digested in-gel with porcine trypsin (Promega) at a protease concentration of 10 ng/μl in 5 mM TEAB. Digestion was allowed to proceed for 4 hours at 37° C. and the reaction was subsequently stopped using 5 μl 5% formic acid.
(§8) Gel plugs were extracted twice with 20 μl 1% formic acid and three times with increasing concentrations of acetonitrile. Extracts were subsequently pooled with acidified digest supernatants and dried in a vacuum centrifuge. […]

MAP3K6 = biological target: T4, MAP3K6 (Homo sapiens, UniProt O95382); test: as above; details: 10 μM free compound; mixed HeLa and placenta cell lysates
T4 construct: endogenous in cells; host or cells: mixed lysate of HeLa cells and placenta
Procedure: as §4, §5, §6, §7, §8

Erk2 = biological target: T5, Erk2 (Homo sapiens, UniProt P28482); test: as above; details: 10 μM free compound; mixed HeLa and placenta cell lysates
T5 construct: endogenous in cells; host or cells: mix of HeLa cell lysate and placenta lysate
Procedure: as §4, §5, §6, §7, §8

PIK3Ca = biological target: T6, PIK3Ca (Homo sapiens, UniProt P42336); test: as above; details: 10 μM free compound; mixed HeLa and placenta cell lysates
T6 construct: endogenous in cells; host or cells: mix of HeLa cell lysate and placenta lysate
Procedure: as §4, §5, §6, §7, §8

AurA = biological target: T7, AurA (Homo sapiens, UniProt O14965); test: as above; details: 10 μM free compound; mixed HeLa and placenta cell lysates
T7 construct: endogenous in cells; host or cells: mixed lysate of HeLa cells and placenta
Procedure: as §4, §5, §6, §7, §8

JNK2 = biological target: T8, JNK2 (Homo sapiens, UniProt P45984); test: as above; details: 10 μM free compound; mixed HeLa and placenta cell lysates
T8 construct: endogenous in cells; host or cells: mixed lysate of HeLa cells and placenta
Procedure: as §4, §5, §6, §7, §8

TNK1 = biological target: T9, TNK1 (Homo sapiens, UniProt Q13470); test: as above; details: 10 μM free compound; mixed HeLa and placenta cell lysates
T9 construct: endogenous in cells; host or cells: mix of HeLa cell lysate and placenta lysate
Procedure: as §4, §5, §6, §7, §8

BCKDK [3] = biological target: T1, BCKDK; test: as above; set-up: endogenous in cells; details: 10 μM free compound; mixed HeLa and placenta cell lysates
Procedure: as §4, §5
as §6, with “The column was incubated for 30 minutes at 50° C. and the eluate was transferred to a siliconized microfuge tube by centrifugation. Proteins were then alkylated with 108 mM iodoacetamid. Proteins were then separated by SDS-Polyacrylamide electrophoresis (SDS-PAGE).” left out

MAP3K1 [4] = biological target: T2, MAP3K1; test: as above; set-up: endogenous in cells; details: 10 μM free compound; mixed HeLa and placenta cell lysates
Procedure: as §4, §5
as §6, with “The column was incubated for 30 minutes at 50° C. and the eluate was transferred to a siliconized microfuge tube by centrifugation. Proteins were then alkylated with 108 mM iodoacetamid. Proteins were then separated by SDS-Polyacrylamide electrophoresis (SDS-PAGE).” left out

PIK4Ca = PIK4Ca (Homo sapiens, UniProt P42356); test: as above; set-up: endogenous in cells; details: 10 μM free compound; mixed HeLa and placenta cell lysates
Procedure: as §4, §5
as §6, with “The column was incubated for 30 minutes at 50° C. and the eluate was transferred to a siliconized microfuge tube by centrifugation. Proteins were then alkylated with 108 mM iodoacetamid. Proteins were then separated by SDS-Polyacrylamide electrophoresis (SDS-PAGE).” left out

T2 sequence (Q13233 whole entry): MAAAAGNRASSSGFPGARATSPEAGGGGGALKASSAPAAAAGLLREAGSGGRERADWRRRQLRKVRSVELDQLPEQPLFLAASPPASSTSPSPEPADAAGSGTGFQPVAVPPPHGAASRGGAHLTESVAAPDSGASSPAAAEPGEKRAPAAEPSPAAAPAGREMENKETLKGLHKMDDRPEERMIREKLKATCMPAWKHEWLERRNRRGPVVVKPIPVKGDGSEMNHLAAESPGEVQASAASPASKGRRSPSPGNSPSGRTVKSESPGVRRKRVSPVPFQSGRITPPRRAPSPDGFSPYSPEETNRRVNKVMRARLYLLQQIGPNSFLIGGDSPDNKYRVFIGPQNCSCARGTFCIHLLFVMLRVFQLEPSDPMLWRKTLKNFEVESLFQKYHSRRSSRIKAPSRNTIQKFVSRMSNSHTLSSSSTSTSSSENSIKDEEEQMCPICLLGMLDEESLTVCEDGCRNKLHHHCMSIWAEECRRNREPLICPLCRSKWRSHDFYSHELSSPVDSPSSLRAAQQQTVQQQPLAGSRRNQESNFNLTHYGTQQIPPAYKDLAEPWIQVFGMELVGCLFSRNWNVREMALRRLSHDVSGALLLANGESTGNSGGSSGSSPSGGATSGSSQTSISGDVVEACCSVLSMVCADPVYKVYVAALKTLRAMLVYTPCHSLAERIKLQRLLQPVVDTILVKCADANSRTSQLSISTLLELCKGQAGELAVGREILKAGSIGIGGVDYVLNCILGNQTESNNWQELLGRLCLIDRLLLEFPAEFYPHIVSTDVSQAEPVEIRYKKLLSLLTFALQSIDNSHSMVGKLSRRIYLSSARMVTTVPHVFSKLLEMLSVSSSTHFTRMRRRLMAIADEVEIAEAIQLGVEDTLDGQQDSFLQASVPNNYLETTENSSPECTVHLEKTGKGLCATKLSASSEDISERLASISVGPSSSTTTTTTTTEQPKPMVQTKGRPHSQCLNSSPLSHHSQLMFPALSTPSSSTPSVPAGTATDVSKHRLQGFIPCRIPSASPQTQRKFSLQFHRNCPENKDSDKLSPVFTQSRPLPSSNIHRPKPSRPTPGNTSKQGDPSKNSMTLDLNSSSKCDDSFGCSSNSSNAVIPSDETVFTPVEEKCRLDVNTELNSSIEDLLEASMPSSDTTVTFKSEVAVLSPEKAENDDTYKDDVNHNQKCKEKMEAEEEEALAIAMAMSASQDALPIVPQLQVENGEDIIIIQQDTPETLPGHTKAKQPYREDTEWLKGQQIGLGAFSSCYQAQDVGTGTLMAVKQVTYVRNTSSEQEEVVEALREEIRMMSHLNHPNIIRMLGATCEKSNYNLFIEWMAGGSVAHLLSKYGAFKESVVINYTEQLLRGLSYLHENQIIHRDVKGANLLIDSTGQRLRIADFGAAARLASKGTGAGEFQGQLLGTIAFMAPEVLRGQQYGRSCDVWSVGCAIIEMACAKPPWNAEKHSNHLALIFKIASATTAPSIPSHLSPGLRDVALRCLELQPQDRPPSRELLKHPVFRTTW
T6 sequence (P42336 whole entry): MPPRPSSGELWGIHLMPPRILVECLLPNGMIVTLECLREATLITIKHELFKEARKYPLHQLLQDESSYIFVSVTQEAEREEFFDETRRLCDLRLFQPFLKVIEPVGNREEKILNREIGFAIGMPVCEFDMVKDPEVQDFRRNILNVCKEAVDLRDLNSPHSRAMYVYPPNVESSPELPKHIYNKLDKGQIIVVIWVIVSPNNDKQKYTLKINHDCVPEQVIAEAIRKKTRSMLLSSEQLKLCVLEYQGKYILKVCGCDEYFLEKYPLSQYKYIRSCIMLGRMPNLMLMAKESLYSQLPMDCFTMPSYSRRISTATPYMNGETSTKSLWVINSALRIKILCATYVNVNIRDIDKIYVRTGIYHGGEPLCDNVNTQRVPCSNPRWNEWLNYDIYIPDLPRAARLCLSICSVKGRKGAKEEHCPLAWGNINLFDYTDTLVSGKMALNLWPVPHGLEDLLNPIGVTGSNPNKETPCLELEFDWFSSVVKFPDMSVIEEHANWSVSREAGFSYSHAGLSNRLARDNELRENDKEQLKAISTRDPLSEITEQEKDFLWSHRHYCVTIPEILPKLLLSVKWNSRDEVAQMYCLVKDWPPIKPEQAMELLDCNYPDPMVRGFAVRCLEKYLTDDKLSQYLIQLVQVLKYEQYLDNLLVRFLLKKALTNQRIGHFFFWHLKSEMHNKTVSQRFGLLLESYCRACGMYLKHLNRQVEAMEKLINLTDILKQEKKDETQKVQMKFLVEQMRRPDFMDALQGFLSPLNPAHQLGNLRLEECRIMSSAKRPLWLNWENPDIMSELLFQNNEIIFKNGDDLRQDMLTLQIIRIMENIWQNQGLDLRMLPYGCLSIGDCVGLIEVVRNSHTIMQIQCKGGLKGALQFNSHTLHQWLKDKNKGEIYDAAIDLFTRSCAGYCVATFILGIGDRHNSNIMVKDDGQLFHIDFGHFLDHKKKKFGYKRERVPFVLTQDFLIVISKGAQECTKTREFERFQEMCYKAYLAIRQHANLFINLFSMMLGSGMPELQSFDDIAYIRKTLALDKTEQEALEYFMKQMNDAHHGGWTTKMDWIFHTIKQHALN
T6 sequence (P27986 whole entry partner): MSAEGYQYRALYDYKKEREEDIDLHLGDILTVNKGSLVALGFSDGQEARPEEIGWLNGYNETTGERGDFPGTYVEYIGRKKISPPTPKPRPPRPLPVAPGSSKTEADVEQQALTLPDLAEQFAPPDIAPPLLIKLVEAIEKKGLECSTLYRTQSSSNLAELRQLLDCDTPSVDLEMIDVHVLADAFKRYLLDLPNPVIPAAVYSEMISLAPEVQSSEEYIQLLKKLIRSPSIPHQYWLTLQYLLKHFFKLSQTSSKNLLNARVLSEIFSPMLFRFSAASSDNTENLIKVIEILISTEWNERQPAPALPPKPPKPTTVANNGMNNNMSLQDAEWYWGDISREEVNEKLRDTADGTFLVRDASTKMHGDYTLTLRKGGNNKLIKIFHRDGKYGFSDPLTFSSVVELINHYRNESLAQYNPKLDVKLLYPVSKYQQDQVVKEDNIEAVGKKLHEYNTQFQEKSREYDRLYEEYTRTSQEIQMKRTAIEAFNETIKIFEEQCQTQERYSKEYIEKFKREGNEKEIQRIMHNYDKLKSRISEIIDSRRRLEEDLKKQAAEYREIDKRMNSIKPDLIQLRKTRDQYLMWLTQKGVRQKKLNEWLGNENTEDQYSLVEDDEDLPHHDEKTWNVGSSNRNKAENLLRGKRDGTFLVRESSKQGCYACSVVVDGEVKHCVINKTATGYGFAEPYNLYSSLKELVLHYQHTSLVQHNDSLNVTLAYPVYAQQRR
T8 sequence (P45984 whole entry): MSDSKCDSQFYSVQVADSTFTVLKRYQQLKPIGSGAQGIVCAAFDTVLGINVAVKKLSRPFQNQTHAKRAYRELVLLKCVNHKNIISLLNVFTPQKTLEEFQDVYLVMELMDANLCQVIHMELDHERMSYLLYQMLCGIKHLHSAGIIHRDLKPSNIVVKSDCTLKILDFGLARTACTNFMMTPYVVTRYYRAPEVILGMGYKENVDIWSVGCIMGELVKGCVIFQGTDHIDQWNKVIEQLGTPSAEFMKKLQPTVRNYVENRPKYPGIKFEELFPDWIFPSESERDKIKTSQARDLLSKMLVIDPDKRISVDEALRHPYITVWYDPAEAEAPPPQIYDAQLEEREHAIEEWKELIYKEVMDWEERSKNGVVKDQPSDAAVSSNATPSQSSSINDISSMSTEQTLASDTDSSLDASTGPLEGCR
Sequence of PIK3Cb (P42338 whole entry): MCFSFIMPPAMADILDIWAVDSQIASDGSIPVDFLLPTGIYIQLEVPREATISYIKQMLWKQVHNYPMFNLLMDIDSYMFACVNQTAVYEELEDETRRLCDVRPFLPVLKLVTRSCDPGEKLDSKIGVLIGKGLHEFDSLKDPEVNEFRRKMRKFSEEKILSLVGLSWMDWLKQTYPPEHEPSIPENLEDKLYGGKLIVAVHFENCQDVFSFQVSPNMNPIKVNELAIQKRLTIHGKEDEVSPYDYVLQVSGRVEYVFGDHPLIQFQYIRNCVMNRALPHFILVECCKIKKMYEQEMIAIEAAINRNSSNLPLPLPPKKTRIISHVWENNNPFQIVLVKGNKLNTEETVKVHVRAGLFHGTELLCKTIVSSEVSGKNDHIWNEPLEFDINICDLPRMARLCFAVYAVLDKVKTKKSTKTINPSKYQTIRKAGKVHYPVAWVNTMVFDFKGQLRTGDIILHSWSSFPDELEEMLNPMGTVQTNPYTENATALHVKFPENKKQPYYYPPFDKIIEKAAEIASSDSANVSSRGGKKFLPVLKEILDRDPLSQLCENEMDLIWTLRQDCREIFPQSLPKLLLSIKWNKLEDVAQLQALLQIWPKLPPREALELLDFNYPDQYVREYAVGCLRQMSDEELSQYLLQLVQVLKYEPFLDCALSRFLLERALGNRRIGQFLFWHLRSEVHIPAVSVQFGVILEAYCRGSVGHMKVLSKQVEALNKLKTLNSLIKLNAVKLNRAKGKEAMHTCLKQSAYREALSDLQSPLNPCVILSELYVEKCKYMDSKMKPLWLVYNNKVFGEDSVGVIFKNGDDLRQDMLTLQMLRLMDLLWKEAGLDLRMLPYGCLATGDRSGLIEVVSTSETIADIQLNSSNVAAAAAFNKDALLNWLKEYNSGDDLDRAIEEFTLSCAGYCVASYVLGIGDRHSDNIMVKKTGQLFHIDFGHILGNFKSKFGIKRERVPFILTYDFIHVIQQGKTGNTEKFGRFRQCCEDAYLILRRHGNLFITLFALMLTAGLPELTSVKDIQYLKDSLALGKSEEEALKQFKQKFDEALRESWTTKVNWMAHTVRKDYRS
Sequence of PIK3Cb (P27986 whole entry partner): as the sequence (P27986 whole entry partner) above

Competition % PIK3Cd (PIK3Cd): 91.3%
Competition % PIK3Cb (PIK3Cb): 94.8%
Competition % FRAP (FRAP): −87.1%
Competition % DNAPK (DNAPK): 38.2%
Competition % PIP5K2C (PIP5K2C): 75.5%
Competition % NEK2 (NEK2): 17%
Competition % PIK3Cg (PIK3Cg): 91.5%
Competition % BCKDK (BCKDK [1]): −0.1%
Competition % MAP3K1 (MAP3K1 [2]): 14.1%
Competition % MLKL (MLKL): 34.2%
Competition % MAP3K6 (MAP3K6): 10.3%
Competition % Erk2 (Erk2): −2.9%
Competition % PIK3Ca (PIK3Ca): 68.6%
Competition % AurA (AurA): 12.8%
Competition % JNK2 (JNK2): 24.6%
Competition % TNK1 (TNK1): −1.9%
Competition % BCKDK (BCKDK [3]): 8%
Competition % MAP3K1 (MAP3K1 [4]): 13.3%
Competition % PIK4Ca (PIK4Ca): 39.9%
SMILES: CC(C)NS(=O)(=O)c1cncc(-c2ccc3nc(NC(=O)NCCN)nn3c2)c1 [CZC31207, 5-(2-(3-(2-aminoethyl)ureido)-[1,2,4]triazolo[1,5-a]pyridin-6-yl)-N-isopropylpyridine-3-sulfonamide]
